This is an account of results in patent publication US20100331310A1, “BICYCLOAMINE DERIVATIVES” (priority 2008, published 2010).

Structures can show the parent of a compound that is named as a salt.

The first experiment deals with T1, human Nav1.8 (Homo sapiens, UniProt Q9Y5Y9).
T1 construct: expressed in transfected cells
T1 sequence (Q9Y5Y9 whole entry): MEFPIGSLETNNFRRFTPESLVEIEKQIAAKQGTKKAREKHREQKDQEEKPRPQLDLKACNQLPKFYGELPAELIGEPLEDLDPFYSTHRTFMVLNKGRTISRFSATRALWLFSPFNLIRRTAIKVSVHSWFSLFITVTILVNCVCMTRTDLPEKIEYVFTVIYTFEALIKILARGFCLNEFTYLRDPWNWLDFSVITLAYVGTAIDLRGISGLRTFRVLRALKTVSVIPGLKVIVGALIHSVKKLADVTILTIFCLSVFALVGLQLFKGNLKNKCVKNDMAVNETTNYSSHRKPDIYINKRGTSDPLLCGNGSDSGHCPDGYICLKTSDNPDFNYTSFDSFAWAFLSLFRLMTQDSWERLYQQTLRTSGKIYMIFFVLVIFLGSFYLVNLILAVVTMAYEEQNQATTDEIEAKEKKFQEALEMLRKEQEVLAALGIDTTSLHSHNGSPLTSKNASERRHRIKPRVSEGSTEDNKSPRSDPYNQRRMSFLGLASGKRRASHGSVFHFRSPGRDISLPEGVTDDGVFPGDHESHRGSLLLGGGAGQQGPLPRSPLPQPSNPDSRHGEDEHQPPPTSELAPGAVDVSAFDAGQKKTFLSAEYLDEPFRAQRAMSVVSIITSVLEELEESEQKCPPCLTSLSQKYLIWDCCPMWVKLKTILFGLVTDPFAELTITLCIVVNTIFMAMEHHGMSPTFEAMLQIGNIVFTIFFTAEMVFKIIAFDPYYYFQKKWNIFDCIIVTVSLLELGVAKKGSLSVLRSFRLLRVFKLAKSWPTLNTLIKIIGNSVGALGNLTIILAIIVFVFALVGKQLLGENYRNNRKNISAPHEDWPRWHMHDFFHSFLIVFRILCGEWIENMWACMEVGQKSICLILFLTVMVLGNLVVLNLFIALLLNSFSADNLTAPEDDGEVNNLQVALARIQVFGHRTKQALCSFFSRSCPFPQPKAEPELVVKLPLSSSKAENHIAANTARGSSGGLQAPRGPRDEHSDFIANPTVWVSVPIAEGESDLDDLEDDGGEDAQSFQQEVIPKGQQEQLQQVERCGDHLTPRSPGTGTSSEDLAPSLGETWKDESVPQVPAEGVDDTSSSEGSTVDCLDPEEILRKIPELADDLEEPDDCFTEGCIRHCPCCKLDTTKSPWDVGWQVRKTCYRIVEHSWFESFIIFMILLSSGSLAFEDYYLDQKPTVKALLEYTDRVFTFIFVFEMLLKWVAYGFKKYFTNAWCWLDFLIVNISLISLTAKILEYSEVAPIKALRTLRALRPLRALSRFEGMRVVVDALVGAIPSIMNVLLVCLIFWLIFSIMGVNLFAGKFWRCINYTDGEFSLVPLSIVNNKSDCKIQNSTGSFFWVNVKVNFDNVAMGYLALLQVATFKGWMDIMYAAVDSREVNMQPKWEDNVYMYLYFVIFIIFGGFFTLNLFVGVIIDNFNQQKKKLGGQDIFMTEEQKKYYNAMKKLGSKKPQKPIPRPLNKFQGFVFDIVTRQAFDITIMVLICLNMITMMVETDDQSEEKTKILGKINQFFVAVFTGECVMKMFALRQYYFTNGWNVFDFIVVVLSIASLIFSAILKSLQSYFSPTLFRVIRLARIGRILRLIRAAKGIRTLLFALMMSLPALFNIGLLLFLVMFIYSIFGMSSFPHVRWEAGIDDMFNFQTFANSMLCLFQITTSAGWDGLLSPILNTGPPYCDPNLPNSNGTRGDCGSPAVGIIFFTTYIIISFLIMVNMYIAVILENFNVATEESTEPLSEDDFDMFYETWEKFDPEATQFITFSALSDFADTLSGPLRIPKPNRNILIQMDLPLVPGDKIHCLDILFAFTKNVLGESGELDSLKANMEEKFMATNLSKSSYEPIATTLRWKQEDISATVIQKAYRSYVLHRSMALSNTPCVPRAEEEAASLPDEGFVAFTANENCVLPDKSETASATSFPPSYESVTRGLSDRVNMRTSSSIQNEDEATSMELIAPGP
Briefly: Membrane potential increase-inhibitory action on TTX-resistant Na channels in cells expressing human Nav1.8 gene (deltamethrin stimulation). In kind it is cell-based.
Conditions: not given
The protocol:
A cell line expressing human Nav1.8 gene was used to evaluate the pharmacological effects of compounds of the invention.
1. A membrane potential-sensitive dye containing TTX (final concentration: 0.25 μM) was added to cells expressing human Nav1.8, prior to incubation at 37° C. for 30-60 minutes. 2. The test compound was added to the cells, and the mixture was stationed for 15-30 minutes at room temperature while shielded from light. 3. Deltamethrin (final concentration: 50 μM), a Nav1.8 channel stimulant, was added, and the change in fluorescence intensity due to increased membrane potential was measured.
The Nav1.8 channel inhibition of the test compound was determined by the following equation.
What is called IC50 is the concentration that gives 50% inhibition. Low readings indicate greater potency in that assay, high ones weaker potency in that assay. As for `Cc1nn(C[C@H](F)CN2C3CCC2CC(OCc2cccs2)C3)c(=O)n1C` (stereo partly drawn) [Example 7, (Endo)-2-{(R)-2-fluoro-3-[3-(thiophen-2-ylmethoxy)-8-azabicyclo[3.2.1]oct-8-yl]propyl}-4,5-dimethyl-2,4-dihydro[1,2,4]triazol-3-one], the IC50 was found to be 4.3 µM. This lies in the single-digit micromolar range.
With `Cc1nc(=O)n(C[C@@H](F)CN2[C@@H]3CC[C@H]2C[C@@H](OCc2cccc(F)c2)C3)c(=O)n1C` [Example 13, (Endo)-3-{(S)-2-fluoro-3-[3-(3-fluorobenzyloxy)-8-azabicyclo[3.2.1]oct-8-yl]propyl}-1,6-dimethyl-1H-[1,3,5]triazine-2,4-dione oxalate], the IC50 was found to be 10 µM.
The molecule `Cc1nc(=O)n(C[C@H](F)CN2[C@@H]3CC[C@H]2C[C@@H](OCc2cccc(F)c2)C3)c(=O)n1C` [Example 15, (Endo)-3-{(R)-2-fluoro-3-[3-(3-fluorobenzyloxy)-8-azabicyclo[3.2.1]oct-8-yl]propyl}-1,6-dimethyl-1H-[1,3,5]triazine-2,4-dione oxalate] had a half-inhibitory concentration (IC50) of 2.4 µM. Against the preceding molecule, the IC50 is about 4.2-fold lower.
`Cc1cccc(COC2CC3CCC(C2)N3CC(F)Cn2c(=O)nc(C)n(C)c2=O)c1` (stereo not drawn) [Example 21, (Endo)-3-{2-fluoro-3-[3-(3-methylbenzyloxy)-8-azabicyclo[3.2.1]oct-8-yl]-propyl}-1,6-dimethyl-1H-[1,3,5]triazine-2,4-dione oxalate] came in with an IC50 of 4 µM.
For the molecule `Cc1nn(C[C@H](F)CN2[C@@H]3CC[C@H]2C[C@@H](OCc2cccc(F)c2)C3)c(=O)n1-c1ccn(C)n1` [Example 23, (Endo)-2-{(R)-2-fluoro-3-[3-(3-fluorobenzyloxy)-8-azabicyclo[3.2.1]oct-8-yl]propyl}-5-methyl-4-(1-methyl-1H-pyrazol-3-yl)-2,4-dihydro[1,2,4]triazol-3-one oxalate], the IC50 was 5.3 µM.
For `Cc1nn(C[C@@H](F)CN2[C@@H]3CC[C@H]2C[C@@H](OCc2ccc(F)cc2)C3)c(=O)n1-c1ccn(C)n1` [Example 24, (Endo)-2-{(S)-2-fluoro-3-[3-(4-fluorobenzyloxy)-8-azabicyclo[3.2.1]oct-8-yl]propyl}-5-methyl-4-(1-methyl-1H-pyrazol-3-yl)-2,4-dihydro[1,2,4]triazol-3-one oxalate], the half-inhibitory concentration (IC50) is 3.7 µM.
The same measure, in the same setting: in the case of `CCc1ccccc1COC1CC2CCC(C1)N2C[C@H](O)Cn1nc(C)n(CC)c1=O` (stereo partly drawn) [Example 31, (Endo)-4-ethyl-2-{(S)-3-[3-(2-ethylbenzyloxy)-8-azabicyclo[3.2.1]oct-8-yl]-2-hydroxypropyl}-5-methyl-2,4-dihydro[1,2,4]triazol-3-one] it was 1 µM; in that of `Cc1nn(C[C@H](O)CN2[C@@H]3CC[C@H]2C[C@@H](OCc2ccc(F)cc2)C3)c(=O)n1-c1cnn(C)c1` [Example 34, (Endo)-2-{(R)-3-[3-(4-fluorobenzyloxy)-8-azabicyclo[3.2.1]oct-8-yl]-2-hydroxypropyl}-5-methyl-4-(1-methyl-1H-pyrazol-4-yl)-2,4-dihydro[1,2,4]triazol-3-one], 16 µM.
For the molecule `CCn1cnn(C[C@@H](O)CN2[C@@H]3CC[C@H]2C[C@@H](OCc2c(C)cccc2F)C3)c1=O` [Example 35, (Endo)-4-ethyl-2-{(S)-3-[3-(2-fluoro-6-methylbenzyloxy)-8-azabicyclo[3.2.1]oct-8-yl]-2-hydroxypropyl}-2,4-dihydro[1,2,4]triazol-3-one], half-maximal inhibition (IC50) was put at 14 µM.
In the case of `Cc1nn(CC(O)CN2[C@@H]3CC[C@H]2C[C@@H](OCc2ccccc2F)C3)c(=O)n1-c1nccs1` (stereo partly drawn) [Example 48, (Endo)-2-{3-[3-(2-fluorobenzyloxy)-8-azabicyclo[3.2.1]oct-8-yl]-2-hydroxypropyl}-5-methyl-4-thiazol-2-yl-2,4-dihydro[1,2,4]triazol-3-one oxalate], the IC50 is 0.2 µM.
In the case of `Cn1c(-c2cocn2)nn(CC(O)CN2[C@@H]3CC[C@H]2C[C@@H](OCc2ccccc2CF)C3)c1=O` (stereo partly drawn) [Example 55, (Endo)-2-{3-[3-(2-fluoromethylbenzyloxy)-8-azabicyclo[3.2.1]oct-8-yl]-2-hydroxy-propyl}-4-methyl-5-oxazol-4-yl-2,4-dihydro[1,2,4]triazol-3-one], the 50% inhibitory concentration (IC50) was 12 µM.
Molecule `Cn1c(-c2ccccc2)nn(CCCN2[C@@H]3CC[C@H]2C[C@@H](OCc2ccccc2F)C3)c1=O` [Example 57, (Endo)-2-{3-[3-(2-fluorobenzyloxy)-8-azabicyclo[3.2.1]oct-8-yl]propyl}-4-methyl-5-phenyl-2,4-dihydro[1,2,4]triazol-3-one oxalate] displayed an IC50 of 0.08 µM.
For `CCn1c(C)nc(=O)n(CCCN2[C@@H]3CC[C@H]2C[C@@H](OCc2c(F)cccc2-c2ccccc2)C3)c1=O` [Example 91, (Endo)-1-ethyl-3-{3-[3-(3-fluorobiphenyl-2-ylmethoxy)-8-azabicyclo[3.2.1]oct-8-yl]propyl}-6-methyl-1H-[1,3,5]triazine-2,4-dione oxalate], inhibition was half-maximal at 0.17 µM (IC50). This IC50 is about 2.1-fold higher than that of the molecule before.
For `Cc1nn2c(=O)n(C[C@H](F)CN3[C@@H]4CC[C@H]3C[C@@H](OCc3cccc(F)c3)C4)c(=O)nc2n1C` [Example 101, (Endo)-6-{(R)-2-fluoro-3-[3-(3-fluorobenzyloxy)-8-azabicyclo[3.2.1]oct-8-yl]propyl}-2,3-dimethyl-3H-[1,2,4]triazole[1,5-a][1,3,5]triazine-5,7-dione], the IC50 came to 2.7 µM.
Same read-out and setting: in the case of `Cc1nn2c(=O)n(C[C@H](F)CN3[C@@H]4CC[C@H]3C[C@@H](OCc3ccc(F)c(F)c3)C4)c(=O)nc2n1C` [Example 102, (Endo)-6-{(R)-3-[3-(3,4-di-fluorobenzyloxy)-8-azabicyclo[3.2.1]oct-8-yl]-2-fluoropropyl}-2,3-dimethyl-3H-[1,2,4]triazole[1,5-a][1,3,5]triazine-5,7-dione] it was 2.8 µM; in that of `O=c1nc2n(c(=O)n1C[C@H](F)CN1[C@@H]3CC[C@H]1C[C@@H](OCc1ccc(F)cc1)C3)CCC2` [Example 128, (Endo)-3-{(R)-2-fluoro-3-[3-(4-fluorobenzyloxy)-8-azabicyclo[3.2.1]oct-8-yl]propyl}-7,8-dihydro-6H-pyrrolo[1,2-a][1,3,5]triazine-2,4-dione oxalate], 3.7 µM; in that of `Cc1cccc(F)c1CO[C@H]1C[C@H]2CC[C@@H](C1)N2CCCn1c(=O)nc2n(c1=O)CCCCC2` [Example 136, (Endo)-3-{3-[3-(2-fluoro-6-methylbenzyloxy)-8-azabicyclo[3.2.1]oct-8-yl]propyl}-7,8,9,10-tetrahydro-6H-[1,3,5]triazino[1,2-a]azepine-2,4-dione oxalate], 4.9 µM.
`Cc1ccccc1OC[C@@H]1C[C@H]2CC[C@@H](C1)N2CCCCn1nc2ccccn2c1=O` [Example 153, (Exo)-2-{4-[3-(2-methylphenoxymethyl)-8-azabicyclo[3.2.1]oct-8-yl]butyl}-2H-[1,2,4]triazolo[4,3-a]pyridin-3-one oxalate] registered an IC50 of 3.7 µM.
For `O=c1n(CC[C@H](O)CN2[C@@H]3CC[C@H]2C[C@@H](OCc2ccccc2F)C3)nc2ccccn12` [Example 155, (Endo)-2-{(S)-4-[3-(2-fluorobenzyloxy)-8-azabicyclo[3.2.1]oct-8-yl]-3-hydroxybutyl}-2H-[1,2,4]triazolo[4,3-a]pyridin-3-one], the IC50 was determined as 1.3 µM. Against the preceding molecule, the IC50 is about 2.8-fold lower.
`O=C(CN1[C@@H]2CC[C@H]1C[C@@H](OCc1ccccc1F)C2)Cn1nc2ccccn2c1=O` [Example 158, (Endo)-2-{3-[3-(2-fluorobenzyloxy)-8-azabicyclo[3.2.1]oct-8-yl]-2-oxopropyl}-2H-[1,2,4]triazolo[4,3-a]pyridin-3-one] returned an IC50 of 0.93 µM. This IC50 and that of the molecule before are within 1.5-fold of each other.
`CCn1c(CCCN2[C@@H]3CC[C@H]2C[C@@H](OCc2ccccc2F)C3)nn(C)c1=O` [Example 169, (Endo)-4-ethyl-5-{3-[3-(2-fluorobenzyloxy)-8-azabicyclo[3.2.1]oct-8-yl]propyl}-2-methyl-2,4-dihydro[1,2,4]triazol-3-one]: the IC50 came to 12 µM.
On to `Cc1nc2c(c(=O)n1CCN1[C@@H]3CC[C@H]1C[C@@H](OCc1ccccc1F)C3)CCCC2` [Example 180, (Endo)-3-{2-[3-(2-fluorobenzyloxy)-8-azabicyclo[3.2.1]oct-8-yl]ethyl}-2-methyl-5,6,7,8-tetrahydro-3H-quinazolin-4-one oxalate], for which the IC50 is 4.8 µM.
The molecule `Cn1c(=O)c2c(ncn2CCCN2[C@@H]3CC[C@H]2C[C@@H](OCc2ccccc2F)C3)n(C)c1=O` [Example 182, (Endo)-7-{3-[3-(2-fluorobenzyloxy)-8-azabicyclo[3.2.1]oct-8-yl]propyl}-1,3-dimethyl-3,7-dihydro-purine-2,6-dione] registered an IC50 of 6.7 µM.
Still for that read-out and setting: in the case of `Cc1c(C)n(C)c(=O)n(CCCN2[C@@H]3CC[C@H]2C[C@@H](OCc2ccccc2F)C3)c1=O` [Example 189, (Endo)-3-{3-[3-(2-fluorobenzyloxy)-8-azabicyclo[3.2.1]oct-8-yl]propyl}-1,5,6-trimethyl-1H-pyrimidine-2,4-dione oxalate] it was 3.8 µM; in that of `O=c1n(CC(O)CN2[C@@H]3CC[C@H]2C[C@@H](OCc2ccccc2F)C3)nnn1-c1ccccc1` (stereo partly drawn) [Example 190, (Endo)-1-{3-[3-(2-fluorobenzyloxy)-8-azabicyclo[3.2.1]oct-8-yl]-2-hydroxypropyl}-4-phenyl-1,4-dihydro-tetrazol-5-one], 0.03 µM.

The same experiment, now with this note: 30 μM; reference for complete inhibition in the equation.
Consider `CNCCCN1c2ccccc2CCc2ccccc21` [desipramine, reference compound], for which the Nav1.8 channel inhibition entry was “completely inhibits”.
